In the supplement of paper PMC7840683:
± gives the standard deviation of the averaged measurements.

Tested on: HepaRG
Assay: LDH release cytotoxicity, % of total lysis control; higher = more cytotoxic
Settings: 48 h
Procedure, shortened: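 On collagen I-coated 96-well plates, single-lot HepaRG cells were exposed for 48 h, in duplicate, to eight-point half-log series of test chemicals beginning at 100 µM. The exposure medium was serum-free induction medium with 0.5% DMSO, and total lysis wells got 0.1% Triton X. Resorufin fluorescence from the CytoTox-ONE reaction, read on a Tecan Safire, reported LDH in 50 µL of spent medium. Percent cytotoxicity came from normalization to on-plate vehicle and total lysis controls, averaged over the duplicates.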

| SMILES | LDH release cytotoxicity (0.03162 µM) | LDH release cytotoxicity (0.1 µM) | LDH release cytotoxicity (0.3162278 µM) | LDH release cytotoxicity (1 µM) | LDH release cytotoxicity (3.16228 µM) | LDH release cytotoxicity (10 µM) | LDH release cytotoxicity (31.6228 µM) | LDH release cytotoxicity (100 µM) | LDH release cytotoxicity (0.031623 µM) | LDH release cytotoxicity (0.316228 µM) |
| --- | --- | --- | --- | --- | --- | --- | --- | --- | --- | --- |
| O=C(Oc1ccc(Br)cc1)N1CCN2CCC1CC2 | -1.87 ± 0.45% | -3.23 ± 2.2% | -0.984 ± 0.16% | -1.45 ± 0.27% | -1.43 ± 0.56% | -1.29 ± 0.41% | -0.718 ± 0.41% | 0.972 ± 0.95% |  |  |
| CC(C)(C)c1csc(-c2cc3cc(OCc4ccccc4CC(=O)O)ccc3o2)n1 |  | -2.14 ± 0.54% |  | -2.18 ± 0.68% | -2.37 ± 0.089% | -3.649 ± 0.015% | -2.7 ± 0.72% | 64 ± 7% | 1.06 ± 0.28% | -2.66 ± 0.65% |
| CC(C)(O)c1ccc(CNC(=O)c2cccnc2Oc2ccc(F)cc2)cc1 | -1.22 ± 0.93% | -1.42 ± 0.31% | -0.81 ± 0.042% | -1.975 ± 0.0046% | -0.936 ± 0.39% | -0.88 ± 0.74% | -1.34 ± 0.14% | -1.94 ± 0.87% |  |  |
| CC(C)c1nnc2ccc(-c3ocnc3-c3cc(F)ccc3F)cn12 | -1.28 ± 0.22% | -1.01 ± 0.88% | -1.08 ± 0.44% | -1.31 ± 0.37% | -2.01 ± 0.34% | -1.36 ± 0.45% | -2.04 ± 0.03% | 5.98 ± 0.59% |  |  |
| CC(Oc1ccc(CNC(=O)c2cccnc2Oc2ccc3c(c2)OCO3)c(F)c1)C(=O)O (configuration not stated) | 0.432 ± 0.73% | -0.868 ± 0.12% | -1.04 ± 0.64% | -1.35 ± 0.25% | -1.24 ± 0.19% | -0.8947 ± 0.0016% | -0.798 ± 0.6% | -0.624 ± 0.43% |  |  |
| CC1(C)NC(=O)N(c2ccc([N+](=O)[O-])c(C(F)(F)F)c2)C1=O | -1.893 ± 0.013% | -2.02 ± 0.6% | -1.85 ± 0.036% | -2.09 ± 0.12% | -2 ± 0.71% | -1.72 ± 0.061% | -1.66 ± 0.7% | -0.93 ± 0.35% |  |  |
| Cc1oc2c(NC(=O)c3c(Cl)cccc3Cl)cccc2c1C(C)(C)O | -1.37 ± 0.53% | -0.99 ± 1.4% | -1.56 ± 1.6% | -1.94 ± 1.6% | -2.03 ± 0.99% | -0.5 ± 0.33% | 13.1 ± 1.4% | 33.7 ± 0.42% |  |  |
| Cc1oc(-c2ccccc2)nc1CCOc1cccc2c1ccn2CCC(=O)O | -0.496 ± 0.49% | -1.56 ± 0.14% | -1.37 ± 1.4% | -1.71 ± 0.068% | -1.03 ± 0.61% | -0.899 ± 0.13% | -0.577 ± 0.44% | 45.3 ± 5.2% |  |  |
| Cc1cc(NC(=O)C(=O)O)cc(C)c1Oc1ccc(O)c2c1CCC2 | 0.0573 ± 0.64% | -0.831 ± 0.11% | -0.658 ± 0.17% | -1.32 ± 0.24% | -1.06 ± 0.025% | -0.633 ± 0.77% | 1.17 ± 2.3% | 0.214 ± 0.025% |  |  |
| C=C(C)CN(CC)c1c([N+](=O)[O-])cc(C(F)(F)F)cc1[N+](=O)[O-] | 0.288 ± 0.69% | -0.786 ± 0.58% | -0.775 ± 0.099% | -1.3 ± 0.21% | -0.72 ± 0.57% | -0.92 ± 0.68% | -0.439 ± 0.064% | 0.333 ± 0.038% |  |  |
| CCN(CC)CCNc1ccc(CNC=O)c2sc3ccc(OC)cc3c(=O)c12 | -0.844 ± 1.3% | -1.66 ± 0.14% | -0.986 ± 0.35% | -1.41 ± 0.78% | 1.37 ± 0.86% | 2.31 ± 0.54% | 5.144 ± 0.031% | 81.1 ± 6.4% |  |  |
| CCN1CCC2(CC1)COc1cc3c(cc12)N(C(=O)c1ccc(-c2ccc(-c4nnc(C)o4)cc2C)cc1)CC3 | -2.84 ± 1.3% | -2.94 ± 0.81% | -1.93 ± 1.5% | -3.08 ± 0.76% | -3.21 ± 1.3% | -2.54 ± 0.92% | -2.8 ± 0.8% | -0.687 ± 1.4% |  |  |
| CNC(=O)C1OC(n2cnc3c(NCc4cc(Cl)ccc4OCc4cc(C)no4)ncnc32)C(O)C1N (configuration not stated) | -1.47 ± 0.23% | -1.47 ± 1.1% | -1.92 ± 0.35% | -1.97 ± 0.043% | -1.57 ± 0.1% | -1.54 ± 0.46% | -0.977 ± 0.33% | 0.0796 ± 0.85% |  |  |
| CNC1CCC(c2ccc(Cl)c(Cl)c2)c2ccc(S(N)(=O)=O)cc21 (configuration not stated) | -1.64 ± 0.43% | -2.15 ± 0.55% | -1.81 ± 0.055% | -1.88 ± 0.57% | -1.12 ± 0.32% | -0.337 ± 0.06% | 15 ± 0.65% | 81.4 ± 3.4% |  |  |
| CNCc1cc(F)ccc1Oc1ccc(Cl)c(Cl)c1 | -11 ± 1.1% | -10.04 ± 0.031% | -10.6 ± 1.2% | -10.4 ± 0.19% | -11.2 ± 0.63% | -10 ± 1.1% | -8.03 ± 1.4% | 75.6 ± 5.6% |  |  |
| COc1cc(S(=O)(=O)O)c(C)cc1N=Nc1c(O)ccc2cc(S(=O)(=O)O)ccc12 | -0.0925 ± 0.66% | -0.495 ± 0.4% | -0.745 ± 0.75% | -1.36 ± 1.1% | -1.42 ± 0.71% | -1.6 ± 0.25% | -1.96 ± 0.065% | -2.81 ± 0.42% |  |  |
| COc1ccc(OC(F)(F)F)cc1CNC1CCCNC1c1ccccc1 (configuration not stated) | -0.49 ± 0.062% | -0.83 ± 0.43% | -1.38 ± 0.18% | -1.02 ± 1.2% | -1.52 ± 1.2% | -0.56 ± 0.84% | 5.16 ± 0.72% | 88 ± 10% |  |  |
| COc1cc(C=O)cc2c1C(COC(N)=O)C1(OC(C)=O)ON2CC2C1N2C(C)=O (configuration not stated) | -0.71 ± 0.46% | -0.654 ± 0.1% | 1.14 ± 1.2% | 17.5 ± 1.6% | 62.9 ± 2.6% | 67.8 ± 2.4% | 73 ± 2.2% | 73.3 ± 2.3% |  |  |
| COCCOc1cc2cc(C(=O)NC3CCN(C(C)C)CC3)n(CC(=O)Nc3ccc(Cl)cn3)c2cn1 | -0.433 ± 0.89% | -0.956 ± 0.47% | -0.802 ± 0.14% | -1.56 ± 0.7% | -0.955 ± 0.44% | -0.194 ± 0.17% | 13.4 ± 1% | 96.77 ± 0.093% |  |  |
